Laboratory results from the NIST ThermoML archive (doi:10.1016/j.jct.2019.03.035).
Numbers after ± are expanded uncertainties.

Assay: refractive index (other wavelength) (dimensionless); xn = mol fraction of the nth substance listed
Details: 288.62 K, 100 kPa, Liquid, Wavelength=632.8 nm, minimum deviation angle technique

N#Cc1ccccc1 [benzonitrile] + CCCCCCCCCC
Details	refractive index
x1 = 0.112	1.4196 ± 0.0003
x1 = 0.188	1.4249 ± 0.0003
x1 = 0.34	1.4371 ± 0.0003
x1 = 0.396	1.4422 ± 0.0003
x1 = 0.49	1.4514 ± 0.0004
x1 = 0.608	1.4647 ± 0.0004
x1 = 0.702	1.4771 ± 0.0004
x1 = 0.821	1.4952 ± 0.0004
x1 = 0.912	1.5105 ± 0.0005
x1 = 1	1.5277 ± 0.0003
